“Also recorded” adds a separate entry of the source.
How the values were obtained:
Type in all cases: in vivo, Glycine max
[1] = system: constitutively GA-deficient transgenic dwarf soybean line 719; experiment: Experiment IV field test, seed imbibition, compacted soil; conditions: for field result on line 719 in words: over the rates tested (0.0025-0.25 mg/ml); for No. of Dwarfs Not Rescued / Total Plants: imbibed 8 hours; for Total Plants: 25 seeds planted; for % of Dwarfs Rescued: relative to 8.5 true dwarfs per plot
Text: The objective of these experiments is to determine if there is a greenhouse to field translation of results with selected GA compounds with respect to rescue of constitutively GA-deficient transgenic dwarf soybeans and elongation of wild-type plants. […] For the first field trial, the solutions previously used for the second greenhouse test, and stored in the freezer, are employed. […] For comparison, freshly prepared solutions of GA3 are also employed. The compounds tested included kaurenoic acid, fresh GA3, stored GA3, GA3-3-acetate, GA5, GA9, and GA12. […] Seeds of line […] are imbibed for 8 hours. Untreated dry seeds served as controls. After imbibition, the remaining solutions are returned to the freezer. Seeds are kept on the benchtop at room temperature overnight. […] Untreated dry seeds served as controls. Following planting line 719, all plots (both […] and line 719) are compacted by driving an all-terrain vehicle over the planted rows twice, and watered. All GA solutions are discarded. The results are shown in Table 15 for constitutively GA-deficient transgenic dwarf line 719 only as insufficient […] germinated to make any useful observations. Observations included number of plants that germinated, number rescued, and visual observations. Two points should be noted concerning the data in Table 15. […] Next, the number of dwarfs not rescued in any treatment is subtracted from 8.5.

[2] = system: constitutively GA-deficient transgenic dwarf soybean line 719; experiment: Fifth and sixth field tests, emergence after seed imbibition; conditions: for Total Emerged: 50 seeds imbibed 5 hours
Description: Fresh stock solutions of compounds are prepared for this test. Kaurenoic acid is tested at 0.025 and 0.25 mg/ml; GA3 is tested at 0.025, 0.25, and 0.5 mg/ml; GA3-3-acetate at 0.025 and 0.25 mg/ml; GA5 at 0.025 and 0.25 mg/ml; GA9 at 0.025 and 0.04 mg/ml; and GA12 at 0.025 and 0.25 mg/ml. Stock solutions are prepared in ethanol in 50 ml plastic centrifuge tubes; deionized water is then added to make up the volumes to 30 ml. The final solutions contained 300 μl ethanol in 30 mls. […] Seeds are imbibed for 6 hours, and planted 1″ deep in a single row in moist to wet soil. They are then covered with dry soil, and the row is compacted twice with an all-terrain vehicle. Untreated dry seeds served as controls. The GA solutions are placed on dry ice until reuse the next day.
The next day, additional seeds of constitutive transgenic dwarf line 719 (50 seeds/treatment) are imbibed in the remaining treatment solutions for 5 hours, and planted in moist soil. The rows are compacted twice.

[3] = system: GA-deficient transgenic soybean line 719 (R5); experiment: Hilum treatment of soybean seeds, seedling growth and development, GA-deficient soybean; design: key to Emergence timing / Hypocotyl length (6 DAP) / 1st internode length (12 DAP) / 3rd internode length (20 DAP) / 2nd internode length (12 DAP): pos: emergence faster/stem segment longer than controls; 0: emergence timing/stem segment length similar to controls; neg: emergence slower/stem segment shorter than controls; conditions: for 1st internode length (12 DAP) / Emergence timing / Hypocotyl length (6 DAP): single rate per compound 8.3-16.5 μg/seed; for 2nd internode length (12 DAP) / 3rd internode length (20 DAP): single rate per compound 9.7-16.5 μg/seed; for stem elongation past the first internode: initial seed dose approximately 10 μg/seed
Description: In the previous experiments, the effect of various GA compounds on transgenic, GA-deficient and wild-type soybean is evaluated by treating seeds with these compounds via imbibition. Several of these compounds are not completely soluble in water, which limited the interpretation of their utility in rescuing GA-deficient dwarf plants. The purpose of this experiment is to reevaluate selected, previously tested compounds, and additional compounds, by introducing them to the seed via the hilum. As shown by the results presented below, direct application of small quantities of GA compounds dissolved in an organic solvent to the hilum is an effective method of treating soybean seeds. As in the previously described experiments, comparison is made between activity on GA-deficient soybean seedlings and normal (wild-type) seedlings. […] soybean seeds are supplied by Asgrow Seed Company (Des Moines, Iowa). Seed of GA-deficient transgenic soybean line 719 is created by transformation of […] soybean with pMON29801 (FMV/antisense CPScc). Fifth generation seed (R5) is used for these experiments. […] When multiple droplets are applied, each 1 μl droplet is allowed to dry before subsequent droplets are added. Ethanol minus compound is used a treatment control. […] (29° C.) and 75° F. (24° C.), respectively. Emergence timing is measured by counting the number of emerged seedlings at different times after planting. Emergence is defined as the presence of cotyledons raised to soil level or above. […] To assess the ability of a seed treatment to deliver biological activity beyond the first internode, measurements are taken on selected treatments after prolonged growth and development.

[4] = L719, hilum treatment, rate response

| Compound | field result on line 719 in words [1] | No. of Dwarfs Not Rescued ([1]; stored solution 0.0025 mg/ml) | Total Plants ([1]; stored solution 0.0025 mg/ml) | % of Dwarfs Rescued ([1]; stored solution 0.0025 mg/ml) [%] | No. of Dwarfs Not Rescued ([1]; stored solution 0.025 mg/ml) | Total Plants ([1]; stored solution 0.025 mg/ml) | % of Dwarfs Rescued ([1]; stored solution 0.025 mg/ml) [%] | No. of Dwarfs Not Rescued ([1]; stored solution 0.25 mg/ml) | Total Plants ([1]; stored solution 0.25 mg/ml) | % of Dwarfs Rescued ([1]; stored solution 0.25 mg/ml) [%] | Visual Observations on Transgenic Line 719 ([2]; 0.025 mg/ml) | Total Emerged ([2]; 0.025 mg/ml) | Total Emerged ([2]; 0.25 mg/ml) | 1st internode length (12 DAP) ([3]; L719, hilum treatment) | Emergence timing ([3]; L719, hilum treatment) | Hypocotyl length (6 DAP) ([3]; L719, hilum treatment) | Visual Observations on Transgenic Line 719 ([1]; stored solution 0.25 mg/ml) | Lowest rate where biological activity is observed, 1st internode length (10 DAP) [3, 4] [μg/seed] | Lowest rate where biological activity is observed, emergence timing [3, 4] [μg/seed] | Lowest rate where biological activity is observed, hypocotyl length (5 DAP) [3, 4] [μg/seed] | further results |
| --- | --- | --- | --- | --- | --- | --- | --- | --- | --- | --- | --- | --- | --- | --- | --- | --- | --- | --- | --- | --- | --- |
| C=C1C[C@@]23CC[C@H]4[C@@](C)(CCC[C@@]4(C)C(=O)O)[C@@H]2CC[C@@H]1C3 [kaurenoic acid] | poor uniformity in plant height | 5 | 23 | 41.2 | 4 | 17 | 52.9 | 6 | 22 | 29.4 | Poor rescue | 20 | 10 | 0 | pos | 0 | – | – | – | – | Visual Observations on Transgenic Line 719 ([2]; 0.25 mg/ml): Poor stand |
| C=C1C[C@]23C[C@H]1CC[C@H]2[C@]1(C)CCC[C@@](C)(C(=O)O)[C@H]1[C@@H]3C(=O)O [GA12] | good emergence | 5 | 20 | 41.2 | 4 | 22 | 52.9 | 0 | 20 | 100 | – | 28 | 9 | 0 | 0 | neg | – | – | – | – | effect on emergence timing and hypocotyl length ([3]; single rate, hilum): inhibited emergence timing and hypocotyl length |
| C=C1C[C@]23C[C@@]1(O)CC[C@H]2[C@@]12C=C[C@H](OC(C)=O)[C@@](C)(C(=O)O1)[C@H]2[C@@H]3C(=O)O [GA3-3-acetate] | excessive elongation, and no uniformity in plant height | 0 | 21 | 100 | 0 | 1 | 100 | 0 | 3 | 100 | – | 2 | 1 | pos | pos | pos | Extremely elongated plants | – | – | – | Visual Observations on Transgenic Line 719 ([2]; 0.25 mg/ml): Overelongation |
| C=C1C[C@]23C[C@H]1CC[C@H]2[C@@]12CCC[C@@](C)(C(=O)O1)[C@H]2[C@@H]3C(=O)O [GA9] | slight elongation, and no uniformity in height | 7 | 20 | 17.6 | 0 | 22 | 100 | 0 | 17 | 100 | good emergence with good rescue; also recorded: No dwarfs in plots | 24 | – | pos | pos | pos | Slightly elongated plants | 10 | 0.1 | 0.1 | Total Emerged ([2]; 0.04 mg/ml): 11; 2nd internode length (12 DAP) ([3]; L719, hilum treatment): 0; 3rd internode length (20 DAP) ([3]; L719, hilum treatment): 0 |
| C=C1C[C@]23C[C@@]1(O)CC[C@H]2[C@@]12C=C[C@H](O)[C@@](C)(C(=O)O1)[C@H]2[C@@H]3C(=O)O [GA3, gibberellic acid] | poor emergence at all rates | 0 | 14 | 100 | 0 | 9 | 100 | 0 | 7 | 100 | – | 15 | 9 | pos | pos | pos | Extremely elongated plants | 10 | 0.1 | 0.1 | No. of Dwarfs Not Rescued ([1]; fresh solution 0.0025 mg/ml): 0; Total Plants ([1]; fresh solution 0.0025 mg/ml): 13; % of Dwarfs Rescued ([1]; fresh solution 0.0025 mg/ml): 100%; No. of Dwarfs Not Rescued ([1]; fresh solution 0.025 mg/ml): 1; Total Plants ([1]; fresh solution 0.025 mg/ml): 13; % of Dwarfs Rescued ([1]; fresh solution 0.025 mg/ml): 88.2%; No. of Dwarfs Not Rescued ([1]; fresh solution 0.25 mg/ml): 0; Total Plants ([1]; fresh solution 0.25 mg/ml): 1; % of Dwarfs Rescued ([1]; fresh solution 0.25 mg/ml): 100%; Visual Observations on Transgenic Line 719 ([1]; stored solution 0.025 mg/ml): Extremely elongated plants; Total Emerged ([2]; 0.5 mg/ml): 1; 2nd internode length (12 DAP) ([3]; L719, hilum treatment): 0; 3rd internode length (20 DAP) ([3]; L719, hilum treatment): 0; stem elongation past the first internode ([3]; hilum): not active beyond the first internode |
| C=C1C[C@]23C[C@@]1(O)CC[C@H]2[C@@]12CC=C[C@@](C)(C(=O)O1)[C@H]2[C@@H]3C(=O)O [GA5] | slight to excessive elongation, and no uniformity in plant height | 8 | 25 | 5.9 | 0 | 20 | 100 | 0 | 7 | 100 | good emergence with good rescue | 21 | 3 | pos | pos | pos | Extremely elongated plants | 1 | 1 | 0.1 | Lowest rate where biological activity is observed, 3rd internode length (20 DAP) [3, 4]: >1 μg/seed; 2nd internode length (12 DAP) ([3]; L719, hilum treatment): pos; 3rd internode length (20 DAP) ([3]; L719, hilum treatment): pos; rate giving increased internode elongation at internode number 3 ([3]; hilum): greater than or equal to 1 μg/seed; biological activity on the first internode of line 719 compared to GA3 and GA9 ([3]; hilum, rate response): approximately 10 times more; stem elongation past the first internode ([3]; hilum): measurable increases in internode length up to the third internode |
